Laboratory results reported in PMC12281424, “A Rac-specific competitive inhibitor of guanine nucleotide binding reduces metastasis in triple-negative breast cancer” (Cell Reports Medicine, 2025).

Assays:
[1] = molecular target: Muscarinic M3 (Homo sapiens, UniProt P20309); assay: Safety screen; type: binding
Experimental: Blood cell counts, kinase profiler, safety screen, bacterial cytotoxicity, Ames, micronucleus assays were performed by the company Eurofins (France).

[2] = molecular target: MAP4K3(h) (Homo sapiens, UniProt Q8IVH8); assay: Kinase Profiler; type: biochemical
Experimental: (§1) The kinase profiler was performed by the company Eurofins (Discovery, Panlab and Cerep).

[3] = test system: Calcium Channel L-Type, Phenylalkylamine; assay: Safety screen; type: binding, rat
[4] = molecular target: PEK(h) (Homo sapiens, UniProt Q9NZJ5); assay: Kinase Profiler; type: biochemical
Experimental: as §1

[5] = In vivo pharmacokinetics and tissue distribution; design: species or system mouse; conditions: 25 mg/kg i.p.
Experimental: A41 was administrated intraperitoneally (25 mg/kg, aqueous solution of A41 in 5% DMSO, 50% PEG) in 2 months old C57Bl/6 after 4 h of fasting. After 5, 30, 60, 120 and 360 minutes following injection, mice (n = 3 per kinetic time) were sacrificed and tissues (blood, heart, lung, liver, kidney and brain) were collected. Control mice (n = 5) were used to get blank tissues for mass spectrometry analyses. Blood was collected by cardiac puncture into tubes containing 10% EDTA. Immediately after blood collection, plasma was separated by centrifugation for 5 min at 4 °C (2,000 × g). Solid tissues were rapidly excised and snap frozen in liquid nitrogen before to be disrupted and homogenized in PBS (1/10; wt/vol) using TissueLyser II (Quiagen). A41 concentrations were determined in mouse plasma and tissues by liquid chromatography-tandem mass spectrometry (LC-MS/MS). All solvents were LC-MS grade and purchased from Biosolve (Valkenswaard, Netherlands). A41 10× standard solutions were prepared and serially diluted in acetonitrile to obtain 8 standard solutions ranging 10-20,000 nmol/L. A41 10X standard solutions (5 μL or 20 μL) were added to blank plasma (45 μL) or blank tissue homogenates (180 μL), respectively, to get final concentrations ranging 1-2,000 nmol/L. Acetonitrile (5 μL or 20 μL) was added to plasma (45 μL) or tissue samples (180 μL). Tissue homogenates (standards and samples) were then centrifugated for 5 min at 5,000 × g for 5 min at 10 °C and supernatants (100 μL) were collected. Proteins were precipitated by the addition of 150 μL or 300 μL of acetonitrile containing labeled D3-A41 as internal standard (200 nmol/L) in all plasma (50 μL) and tissue supernatants (100 μL), respectively. After centrifugation (17,000 × g, 10 min, 10 °C), supernatants were collected and dried under a gentle stream of nitrogen. Dried samples were finally reconstituted with 25% acetonitrile containing 0.1% formic acid (100 μL), and injected into the LC-MS/MS system. Analyses were performed on a Xevo® TQD mass spectrometer with an electrospray (ESI) interface and an Acquity H-Class® UPLC™ device (Waters Corporation, Milford, MA, USA). Samples (10 μL) were injected onto a BEH C18 column (1.7 μm; 2.1 × 50 mm, Waters Corporation) held at 60 °C, and compounds were separated with a linear gradient of mobile phase B (acetonitrile, 0.1% formic acid) in mobile phase A (water, 0.1% formic acid) at a flow rate of 500 μL/min. […] A41 and its internal standard d3-A41 were then detected by the mass spectrometer with the ESI interface operating in the positive ion mode (capillary voltage, 3 kV; desolvatation gas (N2) flow and temperature, 900 L/h and 450 °C; source temperature, 120 °C). The multiple reaction monitoring mode was applied for MS/MS detection at the following mass-to-charge (m/z) ratio transitions: 487.1 → 153.0 and 490.2 → 156.0 for A41 and d3-A41, respectively. Cone voltage and collision energy were set at 35 V and 20 eV, respectively. Data acquisition and processing were achieved using MassLynx® and TargetLynx® softwares (version 4.1, Waters Corporation). Chromatographic peak area ratios between A41 and its internal standard constituted the detector responses. Standard solutions were used to plot calibration curves for quantification and dilution factors related to biological matrix preparations were included in calculation. The linearity was expressed by the mean r^2 which was greater than 0.995 for all matrices (linear regression, 1/x weighting, origin excluded). AUC0-6h was calculated as follow: AUC0−6h=∫06hC0e^−Ktdt=C0/K Where K = constant of elimination, and […].
Supplementary Fig. 7: A41 pharmacokinetics. (a) Molecule distribution in plasma and indicatedorgans afterintraperitonealinjectionof A41 (25 mg/kg) in mice(N=3 mice/kinetictimepoint). (b) Pharmacokinetic parametersof A41 calculated in mice after a singleintraperitonealinjection(25mg/kg). AUC = Area Under the Concentration-time curve.

[6] = molecular target: Rsk2(h) (Homo sapiens, UniProt P51812); assay: Kinase Profiler; type: biochemical
Experimental: as §1

[7] = molecular target: ASK1(h) (Homo sapiens, UniProt Q99683); assay: Kinase Profiler; type: biochemical
Experimental: Blood cell counts, kinase profiler, safety screen, bacterial cytotoxicity, Ames, micronucleus assays were performed by the company Eurofins (France). The kinase profiler was performed by the company Eurofins (Discovery, Panlab and Cerep).

[8] = molecular target: PAK3(h) (Homo sapiens, UniProt O75914); assay: Kinase Profiler; type: biochemical
Sequence of PAK3(h) (O75914 whole entry): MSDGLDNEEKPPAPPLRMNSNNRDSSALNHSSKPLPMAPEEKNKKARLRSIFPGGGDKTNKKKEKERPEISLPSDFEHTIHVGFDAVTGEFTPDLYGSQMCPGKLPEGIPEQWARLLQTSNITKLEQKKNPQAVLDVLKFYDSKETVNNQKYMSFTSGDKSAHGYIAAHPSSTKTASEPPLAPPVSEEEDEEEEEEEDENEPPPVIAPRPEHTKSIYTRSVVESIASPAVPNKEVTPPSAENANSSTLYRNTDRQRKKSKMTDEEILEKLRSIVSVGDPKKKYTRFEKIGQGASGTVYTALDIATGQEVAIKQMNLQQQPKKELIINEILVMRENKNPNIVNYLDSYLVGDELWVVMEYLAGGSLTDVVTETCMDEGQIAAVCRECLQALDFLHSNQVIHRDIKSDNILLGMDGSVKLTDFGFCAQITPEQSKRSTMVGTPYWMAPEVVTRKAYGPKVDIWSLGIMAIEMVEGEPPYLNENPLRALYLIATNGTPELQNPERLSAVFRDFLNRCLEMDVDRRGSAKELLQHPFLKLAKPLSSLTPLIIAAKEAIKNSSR
Experimental: as §1

Sequence of MAP4K3(h) (Q8IVH8 whole entry): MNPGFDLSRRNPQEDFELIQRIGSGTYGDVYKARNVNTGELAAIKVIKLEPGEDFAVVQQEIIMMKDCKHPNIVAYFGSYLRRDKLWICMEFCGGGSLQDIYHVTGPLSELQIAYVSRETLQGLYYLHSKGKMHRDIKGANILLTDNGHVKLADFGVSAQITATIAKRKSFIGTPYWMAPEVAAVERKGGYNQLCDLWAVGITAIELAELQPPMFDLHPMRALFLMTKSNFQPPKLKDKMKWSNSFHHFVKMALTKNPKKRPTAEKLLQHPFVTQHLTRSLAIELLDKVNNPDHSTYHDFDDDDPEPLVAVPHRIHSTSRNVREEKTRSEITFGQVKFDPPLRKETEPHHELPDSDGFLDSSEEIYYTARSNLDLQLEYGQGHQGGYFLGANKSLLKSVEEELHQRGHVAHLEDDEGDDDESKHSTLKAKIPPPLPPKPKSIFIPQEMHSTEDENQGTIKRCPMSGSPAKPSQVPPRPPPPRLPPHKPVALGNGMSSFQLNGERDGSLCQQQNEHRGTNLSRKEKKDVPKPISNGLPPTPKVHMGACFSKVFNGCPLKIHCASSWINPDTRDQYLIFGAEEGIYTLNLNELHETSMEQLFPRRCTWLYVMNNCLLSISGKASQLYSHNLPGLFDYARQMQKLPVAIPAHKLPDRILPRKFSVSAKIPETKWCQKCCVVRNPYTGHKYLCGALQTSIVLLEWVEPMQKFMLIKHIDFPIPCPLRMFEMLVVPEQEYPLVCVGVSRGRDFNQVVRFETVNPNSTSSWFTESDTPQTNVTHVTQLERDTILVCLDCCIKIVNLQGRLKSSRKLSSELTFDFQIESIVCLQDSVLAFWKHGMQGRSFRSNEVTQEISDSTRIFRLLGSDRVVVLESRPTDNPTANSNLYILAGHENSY
Sequence of ASK1(h) (Q99683 whole entry): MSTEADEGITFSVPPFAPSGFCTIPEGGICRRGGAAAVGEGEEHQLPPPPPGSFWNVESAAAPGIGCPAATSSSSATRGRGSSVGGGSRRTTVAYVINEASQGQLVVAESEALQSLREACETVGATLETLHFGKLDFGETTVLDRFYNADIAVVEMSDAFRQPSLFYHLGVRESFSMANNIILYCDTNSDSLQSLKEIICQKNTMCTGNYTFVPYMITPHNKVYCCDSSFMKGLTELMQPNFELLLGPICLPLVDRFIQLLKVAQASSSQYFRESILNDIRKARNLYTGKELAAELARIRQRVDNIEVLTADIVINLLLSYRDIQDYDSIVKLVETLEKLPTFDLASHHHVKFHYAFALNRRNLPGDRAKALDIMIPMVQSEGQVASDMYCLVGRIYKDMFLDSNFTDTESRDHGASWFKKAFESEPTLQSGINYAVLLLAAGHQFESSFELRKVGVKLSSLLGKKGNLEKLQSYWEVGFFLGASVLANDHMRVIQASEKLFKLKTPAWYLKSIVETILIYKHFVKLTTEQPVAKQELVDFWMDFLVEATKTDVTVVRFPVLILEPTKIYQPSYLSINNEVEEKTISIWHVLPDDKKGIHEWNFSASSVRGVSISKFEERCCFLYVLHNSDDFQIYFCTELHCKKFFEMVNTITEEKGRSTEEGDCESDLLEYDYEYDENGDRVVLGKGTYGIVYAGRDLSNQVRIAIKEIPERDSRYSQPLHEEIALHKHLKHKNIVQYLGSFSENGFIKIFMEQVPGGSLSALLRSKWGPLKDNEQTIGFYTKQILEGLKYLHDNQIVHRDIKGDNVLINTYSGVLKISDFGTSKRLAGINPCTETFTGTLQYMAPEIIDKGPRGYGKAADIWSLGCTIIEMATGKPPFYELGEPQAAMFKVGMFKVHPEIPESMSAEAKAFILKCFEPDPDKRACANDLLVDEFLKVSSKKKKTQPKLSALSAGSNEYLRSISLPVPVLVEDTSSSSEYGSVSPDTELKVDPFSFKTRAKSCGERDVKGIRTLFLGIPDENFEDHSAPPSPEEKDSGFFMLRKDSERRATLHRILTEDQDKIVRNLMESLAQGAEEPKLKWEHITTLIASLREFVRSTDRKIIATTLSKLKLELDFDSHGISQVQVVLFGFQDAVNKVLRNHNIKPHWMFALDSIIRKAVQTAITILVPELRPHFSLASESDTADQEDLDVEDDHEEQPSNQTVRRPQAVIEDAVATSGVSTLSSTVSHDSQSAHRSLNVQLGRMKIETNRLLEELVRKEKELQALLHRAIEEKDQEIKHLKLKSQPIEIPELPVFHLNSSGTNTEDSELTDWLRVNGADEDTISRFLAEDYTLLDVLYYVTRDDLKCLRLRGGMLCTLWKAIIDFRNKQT
Sequence of Muscarinic M3 (P20309 whole entry): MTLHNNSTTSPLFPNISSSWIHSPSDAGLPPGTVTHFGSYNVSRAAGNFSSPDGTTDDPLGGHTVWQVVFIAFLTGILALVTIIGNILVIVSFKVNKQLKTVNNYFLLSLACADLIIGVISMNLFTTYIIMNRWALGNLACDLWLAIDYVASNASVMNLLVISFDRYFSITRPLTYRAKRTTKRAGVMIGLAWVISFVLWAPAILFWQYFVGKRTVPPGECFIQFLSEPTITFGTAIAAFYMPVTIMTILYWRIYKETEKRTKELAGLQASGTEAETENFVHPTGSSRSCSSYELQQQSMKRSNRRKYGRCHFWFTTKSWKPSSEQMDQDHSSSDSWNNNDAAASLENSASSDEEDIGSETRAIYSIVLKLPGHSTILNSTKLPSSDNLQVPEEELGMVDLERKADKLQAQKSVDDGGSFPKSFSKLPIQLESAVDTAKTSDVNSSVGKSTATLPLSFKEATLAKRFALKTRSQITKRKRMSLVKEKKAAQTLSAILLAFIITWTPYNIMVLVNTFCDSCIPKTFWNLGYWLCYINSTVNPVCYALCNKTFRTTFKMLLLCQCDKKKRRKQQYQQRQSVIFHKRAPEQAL
Sequence of PEK(h) (Q9NZJ5 30-1116): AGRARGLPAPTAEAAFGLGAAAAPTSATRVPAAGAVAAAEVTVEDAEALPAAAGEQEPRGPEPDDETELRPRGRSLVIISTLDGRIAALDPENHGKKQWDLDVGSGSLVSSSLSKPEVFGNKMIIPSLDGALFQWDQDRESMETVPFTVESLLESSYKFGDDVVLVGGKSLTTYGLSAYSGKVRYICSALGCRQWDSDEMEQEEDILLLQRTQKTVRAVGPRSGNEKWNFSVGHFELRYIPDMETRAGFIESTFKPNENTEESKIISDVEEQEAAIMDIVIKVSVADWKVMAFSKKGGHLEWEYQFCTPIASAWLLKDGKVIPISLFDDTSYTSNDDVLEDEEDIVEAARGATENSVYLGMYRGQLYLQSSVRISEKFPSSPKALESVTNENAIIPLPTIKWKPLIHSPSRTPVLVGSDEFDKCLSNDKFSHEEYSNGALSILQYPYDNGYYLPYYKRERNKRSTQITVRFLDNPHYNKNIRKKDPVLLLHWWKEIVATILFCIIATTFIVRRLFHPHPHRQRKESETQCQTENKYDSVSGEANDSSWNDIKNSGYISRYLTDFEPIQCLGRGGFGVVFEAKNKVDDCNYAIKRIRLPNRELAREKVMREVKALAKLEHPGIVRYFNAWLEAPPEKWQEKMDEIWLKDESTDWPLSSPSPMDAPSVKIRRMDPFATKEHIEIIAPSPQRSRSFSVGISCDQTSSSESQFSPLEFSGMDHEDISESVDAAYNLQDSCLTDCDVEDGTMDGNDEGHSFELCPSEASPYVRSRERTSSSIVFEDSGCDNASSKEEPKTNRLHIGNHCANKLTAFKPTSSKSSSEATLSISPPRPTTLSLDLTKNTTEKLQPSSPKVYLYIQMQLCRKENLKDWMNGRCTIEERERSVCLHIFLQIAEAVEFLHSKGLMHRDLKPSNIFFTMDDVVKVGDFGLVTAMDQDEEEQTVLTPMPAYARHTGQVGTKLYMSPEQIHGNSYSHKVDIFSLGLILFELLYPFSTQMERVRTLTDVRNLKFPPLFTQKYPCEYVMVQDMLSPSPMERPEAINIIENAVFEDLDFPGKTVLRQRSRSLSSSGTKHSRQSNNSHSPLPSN

Compound: COc1ccc(OC)c(NS(=O)(=O)c2ccc(NC(=O)CCSc3ccc(C)cc3)cc2)c1 [Compound A41]
- % inh. [1]: 4%
- Activity(%) [2]: 98%
- % inh. [3]: 52%
- Activity(%) [4]: 102%
- C0 [5]: 4335 ng/mL
- blood-brain barrier crossing [5]: could not cross the blood-brain barrier
- t ½ [5]: 1.6294 h
- time over which plasma concentration declined [5]: 2 to 3 h
- tissue concentration, brain [5]: extremely low concentration
- tissue concentration, kidney [5]: highest concentration
- tissue distribution, liver, heart, and lungs [5]: detected
- AUC0-6h ([5]; parameter list): 14.3 µg·h/mL
- AUC0-6h ([5]; plasma): 14.3 (µg/ mL)xh
- Cmax (peak plasma concentration) ([5]; plasma): 15056 ± 500 ng/mL
- Activity(%) [6]: 86%
- Activity(%) [7]: 94%
- Activity(%) [8]: 107%
